Laboratory results reported in ChEMBL document CHEMBL4507277.

Experiments:
[1] = target: Non-receptor tyrosine-protein kinase TNK1 (Homo sapiens) (UniProt Q13470); details: Compound concentration 1000.0 nM
[2] = system: Tyrosine-protein kinase ABL1 (Homo sapiens), P00519 [Q252H]; details: Compound concentration 1000.0 nM
[3] = target: Proto-oncogene tyrosine-protein kinase ROS (Homo sapiens) (UniProt P08922); details: Compound concentration 1000.0 nM
[4] = target: MAP kinase-activated protein kinase 2 (Homo sapiens) (UniProt P49137); details: Compound concentration 1000.0 nM
[5] = target: Receptor-type tyrosine-protein kinase FLT3 (Homo sapiens) (UniProt P36888); details: Compound concentration 1000.0 nM
[6] = target: Muscle, skeletal receptor tyrosine-protein kinase (Homo sapiens) (UniProt O15146); details: Compound concentration 1000.0 nM
[7] = target: Serine/threonine-protein kinase ULK2 (Homo sapiens) (UniProt Q8IYT8); details: Compound concentration 1000.0 nM
[8] = target: Serine/threonine-protein kinase B-raf (Homo sapiens) (UniProt P15056); details: Compound concentration 1000.0 nM
[9] = target: Mitogen-activated protein kinase kinase kinase 19 (Homo sapiens) (UniProt Q56UN5); details: Compound concentration 1000.0 nM
[10] = target: Dual specificity protein kinase CLK1 (Homo sapiens) (UniProt P49759); details: Compound concentration 1000.0 nM
[11] = target: Histamine H4 receptor (Homo sapiens) (UniProt Q9H3N8); details: Compound concentration 10.0 uM
[12] = target: Serine/threonine-protein kinase ULK1 (Homo sapiens) (UniProt O75385); details: Compound concentration 1000.0 nM
[13] = target: Ephrin type-A receptor 1 (Homo sapiens) (UniProt P21709); details: Compound concentration 1000.0 nM
[14] = target: Tyrosine-protein kinase SYK (Homo sapiens) (UniProt P43405); details: Compound concentration 1000.0 nM
[15] = target: Phosphatidylinositol 5-phosphate 4-kinase type-2 gamma (Homo sapiens) (UniProt Q8TBX8); details: Compound concentration 1000.0 nM
[16] = target: Beta-adrenergic receptor kinase 1 (Homo sapiens) (UniProt P25098); details: Compound concentration 1000.0 nM
[17] = target: Calcium/calmodulin-dependent protein kinase type 1D (Homo sapiens) (UniProt Q8IU85); details: Compound concentration 1000.0 nM
[18] = target: Ephrin type-B receptor 1 (Homo sapiens) (UniProt P54762); details: Compound concentration 1000.0 nM
[19] = target: Dual specificity mitogen-activated protein kinase kinase 1 (Homo sapiens) (UniProt Q02750); details: Compound concentration 1000.0 nM
[20] = target: Cyclin-dependent kinase 11A (Homo sapiens) (UniProt Q9UQ88); details: Compound concentration 1000.0 nM
[21] = target: Cyclin-dependent kinase 14 (Homo sapiens) (UniProt O94921); details: Compound concentration 1000.0 nM
[22] = target: Serine/threonine-protein kinase Nek9 (Homo sapiens) (UniProt Q8TD19); details: Compound concentration 1000.0 nM
[23] = target: Serine/threonine-protein kinase Nek4 (Homo sapiens) (UniProt P51957); details: Compound concentration 1000.0 nM
[24] = target: Tyrosine-protein kinase Fgr (Homo sapiens) (UniProt P09769); details: Compound concentration 1000.0 nM
[25] = target: Membrane-associated tyrosine- and threonine-specific cdc2-inhibitory kinase (Homo sapiens) (UniProt Q99640); details: Compound concentration 1000.0 nM
[26] = target: Peripheral plasma membrane protein CASK (Homo sapiens) (UniProt O14936); details: Compound concentration 1000.0 nM
[27] = target: Serine/threonine-protein kinase WNK2 (Homo sapiens) (UniProt Q9Y3S1); details: Compound concentration 1000.0 nM
[28] = target: Cyclin-G-associated kinase (Homo sapiens) (UniProt O14976); details: Compound concentration 1000.0 nM
[29] = target: Activin receptor type-2A (Homo sapiens) (UniProt P27037); details: Compound concentration 1000.0 nM
[30] = target: Mitogen-activated protein kinase kinase kinase 10 (Homo sapiens) (UniProt Q02779); details: Compound concentration 1000.0 nM
[31] = target: Tyrosine-protein kinase receptor UFO (Homo sapiens) (UniProt P30530); details: Compound concentration 1000.0 nM
[32] = target: Mitogen-activated protein kinase 10 (Homo sapiens) (UniProt P53779); details: Compound concentration 1000.0 nM
[33] = target: 5-hydroxytryptamine receptor 6 (Homo sapiens) (UniProt P50406); details: Compound concentration 10.0 uM
[34] = target: Mast/stem cell growth factor receptor Kit (Homo sapiens) (UniProt P10721); details: Compound concentration 1000.0 nM
[35] = target: Serine/threonine-protein kinase LATS2 (Homo sapiens) (UniProt Q9NRM7); details: Compound concentration 1000.0 nM
[36] = target: cAMP-dependent protein kinase catalytic subunit PRKX (Homo sapiens) (UniProt P51817); details: Compound concentration 1000.0 nM
[37] = target: Mu-type opioid receptor (Homo sapiens) (UniProt P35372); details: Compound concentration 10.0 uM
[38] = target: Macrophage colony-stimulating factor 1 receptor (Homo sapiens) (UniProt P07333); details: Compound concentration 1000.0 nM
[39] = target: Aurora kinase B (Homo sapiens) (UniProt Q96GD4); details: Compound concentration 1000.0 nM
[40] = system: Mast/stem cell growth factor receptor Kit (Homo sapiens), P10721 [D816V]; details: Compound concentration 1000.0 nM
[41] = target: Serine/threonine-protein kinase 17A (Homo sapiens) (UniProt Q9UEE5); details: Compound concentration 1000.0 nM
[42] = target: Serine/threonine-protein kinase 33 (Homo sapiens) (UniProt Q9BYT3); details: Compound concentration 1000.0 nM
[43] = target: BDNF/NT-3 growth factors receptor (Homo sapiens) (UniProt Q16620); details: Compound concentration 1000.0 nM
[44] = target: Phosphorylase b kinase gamma catalytic chain, skeletal muscle/heart isoform (Homo sapiens) (UniProt Q16816); details: Compound concentration 1000.0 nM
[45] = target: Serine/threonine-protein kinase BRSK2 (Homo sapiens) (UniProt Q8IWQ3); details: Compound concentration 1000.0 nM

Mitogen-activated protein kinase kinase kinase 10 (Homo sapiens), sequence (Q02779 whole entry, looked up): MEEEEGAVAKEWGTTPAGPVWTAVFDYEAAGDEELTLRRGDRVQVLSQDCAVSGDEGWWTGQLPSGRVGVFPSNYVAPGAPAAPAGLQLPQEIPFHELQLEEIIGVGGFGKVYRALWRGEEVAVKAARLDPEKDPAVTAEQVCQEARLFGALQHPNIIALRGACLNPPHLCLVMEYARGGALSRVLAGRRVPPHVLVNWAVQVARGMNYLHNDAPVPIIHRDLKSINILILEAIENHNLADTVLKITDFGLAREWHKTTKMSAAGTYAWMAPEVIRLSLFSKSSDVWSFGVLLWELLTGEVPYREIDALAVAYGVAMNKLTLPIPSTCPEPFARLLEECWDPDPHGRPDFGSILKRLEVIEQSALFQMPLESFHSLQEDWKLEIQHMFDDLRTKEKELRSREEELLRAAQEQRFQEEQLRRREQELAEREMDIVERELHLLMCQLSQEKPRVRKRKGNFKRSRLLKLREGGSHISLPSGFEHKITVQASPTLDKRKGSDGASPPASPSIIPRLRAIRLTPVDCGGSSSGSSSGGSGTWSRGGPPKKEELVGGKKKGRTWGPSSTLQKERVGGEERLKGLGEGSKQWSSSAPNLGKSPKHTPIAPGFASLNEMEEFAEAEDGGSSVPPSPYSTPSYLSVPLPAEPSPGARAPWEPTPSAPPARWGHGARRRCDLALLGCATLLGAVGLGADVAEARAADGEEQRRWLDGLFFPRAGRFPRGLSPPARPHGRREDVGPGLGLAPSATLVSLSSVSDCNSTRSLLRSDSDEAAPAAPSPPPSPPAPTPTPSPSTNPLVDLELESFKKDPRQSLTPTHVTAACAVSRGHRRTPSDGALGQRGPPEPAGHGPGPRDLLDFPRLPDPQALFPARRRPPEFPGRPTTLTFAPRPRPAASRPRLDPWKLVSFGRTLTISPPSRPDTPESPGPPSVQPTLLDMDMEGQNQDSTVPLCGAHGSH
MAP kinase-activated protein kinase 2 (Homo sapiens), sequence (P49137 whole entry, looked up): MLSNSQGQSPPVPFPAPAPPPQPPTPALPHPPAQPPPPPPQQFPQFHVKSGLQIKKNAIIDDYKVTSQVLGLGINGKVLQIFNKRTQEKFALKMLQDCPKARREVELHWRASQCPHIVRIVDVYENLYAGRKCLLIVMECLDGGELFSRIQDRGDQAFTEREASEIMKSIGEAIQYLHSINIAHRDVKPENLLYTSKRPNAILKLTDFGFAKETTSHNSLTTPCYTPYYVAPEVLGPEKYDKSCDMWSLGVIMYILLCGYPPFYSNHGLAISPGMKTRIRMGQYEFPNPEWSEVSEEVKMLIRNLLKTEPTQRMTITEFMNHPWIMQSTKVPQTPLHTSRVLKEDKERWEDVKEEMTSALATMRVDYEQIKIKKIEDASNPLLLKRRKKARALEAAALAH
Tyrosine-protein kinase receptor UFO (Homo sapiens), sequence (P30530 whole entry): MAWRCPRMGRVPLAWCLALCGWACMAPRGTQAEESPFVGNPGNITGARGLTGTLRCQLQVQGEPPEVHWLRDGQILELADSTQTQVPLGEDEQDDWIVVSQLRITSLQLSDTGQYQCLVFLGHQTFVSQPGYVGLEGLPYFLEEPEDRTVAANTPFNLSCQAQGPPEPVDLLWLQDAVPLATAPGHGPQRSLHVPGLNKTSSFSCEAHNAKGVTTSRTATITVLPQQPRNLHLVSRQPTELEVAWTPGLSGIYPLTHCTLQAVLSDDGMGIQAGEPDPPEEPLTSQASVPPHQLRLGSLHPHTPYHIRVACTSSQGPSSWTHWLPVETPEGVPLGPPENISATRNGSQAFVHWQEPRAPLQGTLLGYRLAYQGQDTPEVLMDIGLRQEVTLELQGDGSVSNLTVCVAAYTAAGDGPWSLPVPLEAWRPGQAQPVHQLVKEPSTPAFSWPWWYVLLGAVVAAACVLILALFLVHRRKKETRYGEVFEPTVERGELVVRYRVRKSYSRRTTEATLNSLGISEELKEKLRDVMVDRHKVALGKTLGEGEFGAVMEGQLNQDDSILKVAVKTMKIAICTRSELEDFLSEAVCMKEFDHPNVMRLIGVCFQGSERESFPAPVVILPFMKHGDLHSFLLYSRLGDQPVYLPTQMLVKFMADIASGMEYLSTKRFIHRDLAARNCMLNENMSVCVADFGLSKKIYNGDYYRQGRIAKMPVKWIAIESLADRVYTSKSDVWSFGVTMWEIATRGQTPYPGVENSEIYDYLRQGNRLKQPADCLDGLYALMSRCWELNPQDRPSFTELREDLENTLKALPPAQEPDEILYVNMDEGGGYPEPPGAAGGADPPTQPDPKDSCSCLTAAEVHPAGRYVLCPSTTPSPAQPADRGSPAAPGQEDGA
Mitogen-activated protein kinase 10 (Homo sapiens), sequence (P53779 whole entry): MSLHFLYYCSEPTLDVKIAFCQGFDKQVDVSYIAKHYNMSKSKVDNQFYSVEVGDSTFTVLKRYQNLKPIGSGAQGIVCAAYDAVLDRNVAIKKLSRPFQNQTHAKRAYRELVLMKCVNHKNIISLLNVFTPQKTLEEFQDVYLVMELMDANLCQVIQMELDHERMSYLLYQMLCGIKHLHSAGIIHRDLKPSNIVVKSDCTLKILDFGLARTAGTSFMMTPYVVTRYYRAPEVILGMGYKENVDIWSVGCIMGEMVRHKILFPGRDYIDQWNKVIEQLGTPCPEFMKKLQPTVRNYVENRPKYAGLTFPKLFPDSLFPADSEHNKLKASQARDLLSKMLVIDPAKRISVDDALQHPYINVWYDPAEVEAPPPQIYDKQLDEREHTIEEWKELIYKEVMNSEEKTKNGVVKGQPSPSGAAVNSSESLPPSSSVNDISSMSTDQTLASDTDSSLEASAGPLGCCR
Serine/threonine-protein kinase B-raf (Homo sapiens), sequence (P15056 whole entry): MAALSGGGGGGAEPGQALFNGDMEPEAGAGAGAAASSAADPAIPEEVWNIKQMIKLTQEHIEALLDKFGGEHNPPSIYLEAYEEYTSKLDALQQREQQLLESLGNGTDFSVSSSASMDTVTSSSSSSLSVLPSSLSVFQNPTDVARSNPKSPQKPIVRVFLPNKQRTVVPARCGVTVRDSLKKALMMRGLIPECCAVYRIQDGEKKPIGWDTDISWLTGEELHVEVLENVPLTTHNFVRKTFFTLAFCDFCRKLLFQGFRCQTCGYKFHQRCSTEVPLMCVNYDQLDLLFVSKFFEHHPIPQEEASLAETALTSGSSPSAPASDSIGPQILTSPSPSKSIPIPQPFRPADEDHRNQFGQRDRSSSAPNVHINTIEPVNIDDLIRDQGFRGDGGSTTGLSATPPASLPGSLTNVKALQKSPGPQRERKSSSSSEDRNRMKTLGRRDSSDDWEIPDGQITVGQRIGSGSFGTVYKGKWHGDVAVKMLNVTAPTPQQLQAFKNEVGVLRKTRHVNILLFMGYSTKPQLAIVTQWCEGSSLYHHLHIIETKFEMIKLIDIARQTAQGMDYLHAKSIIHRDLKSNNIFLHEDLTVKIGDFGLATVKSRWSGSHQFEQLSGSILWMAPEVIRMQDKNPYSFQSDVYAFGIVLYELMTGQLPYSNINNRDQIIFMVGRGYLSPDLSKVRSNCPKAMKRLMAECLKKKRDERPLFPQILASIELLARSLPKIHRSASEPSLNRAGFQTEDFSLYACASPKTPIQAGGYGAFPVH
Mitogen-activated protein kinase kinase kinase 19 (Homo sapiens), sequence (Q56UN5 whole entry): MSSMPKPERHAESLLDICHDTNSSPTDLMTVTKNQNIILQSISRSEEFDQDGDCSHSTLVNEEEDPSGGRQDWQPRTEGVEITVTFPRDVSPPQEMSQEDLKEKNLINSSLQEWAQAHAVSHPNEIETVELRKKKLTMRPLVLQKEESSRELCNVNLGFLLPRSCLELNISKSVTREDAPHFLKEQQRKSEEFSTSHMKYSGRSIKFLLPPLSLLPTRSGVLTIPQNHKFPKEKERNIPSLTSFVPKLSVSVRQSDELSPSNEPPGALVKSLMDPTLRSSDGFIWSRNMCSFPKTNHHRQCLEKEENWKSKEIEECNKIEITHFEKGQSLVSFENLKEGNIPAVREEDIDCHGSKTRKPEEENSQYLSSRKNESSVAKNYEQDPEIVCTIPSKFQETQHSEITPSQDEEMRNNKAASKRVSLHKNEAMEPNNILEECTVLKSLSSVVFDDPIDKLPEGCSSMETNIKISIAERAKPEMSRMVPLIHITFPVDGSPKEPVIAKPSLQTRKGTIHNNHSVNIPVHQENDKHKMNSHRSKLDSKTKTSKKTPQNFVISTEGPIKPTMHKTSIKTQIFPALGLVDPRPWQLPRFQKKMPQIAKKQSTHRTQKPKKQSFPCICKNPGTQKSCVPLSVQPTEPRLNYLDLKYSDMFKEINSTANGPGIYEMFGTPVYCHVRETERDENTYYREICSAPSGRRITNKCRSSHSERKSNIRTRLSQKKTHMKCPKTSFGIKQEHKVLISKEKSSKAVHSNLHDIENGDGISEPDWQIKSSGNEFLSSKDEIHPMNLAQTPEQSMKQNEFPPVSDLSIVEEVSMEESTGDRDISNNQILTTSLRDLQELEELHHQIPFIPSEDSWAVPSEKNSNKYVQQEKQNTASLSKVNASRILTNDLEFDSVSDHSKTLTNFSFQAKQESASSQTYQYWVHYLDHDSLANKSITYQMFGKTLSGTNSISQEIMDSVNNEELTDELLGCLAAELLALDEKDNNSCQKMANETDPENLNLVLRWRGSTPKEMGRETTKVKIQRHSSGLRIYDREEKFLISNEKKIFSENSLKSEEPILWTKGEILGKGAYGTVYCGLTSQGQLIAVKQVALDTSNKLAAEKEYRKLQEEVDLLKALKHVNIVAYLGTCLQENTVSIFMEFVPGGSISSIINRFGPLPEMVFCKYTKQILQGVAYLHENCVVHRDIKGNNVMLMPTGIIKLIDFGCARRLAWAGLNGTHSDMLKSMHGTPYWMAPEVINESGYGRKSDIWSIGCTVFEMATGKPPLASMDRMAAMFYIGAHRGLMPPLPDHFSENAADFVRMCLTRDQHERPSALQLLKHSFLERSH

Q: Which results are given for `CCS(=O)(=O)c1cc2cc(C[C@](O)(CC(C)(C)c3ccc(F)cc3C(N)=O)C(F)(F)F)[nH]c2cn1`?
A: residual activity [1]: 98%; residual activity [2]: 100%; residual activity [3]: 100%; residual activity [4]: 100%; residual activity [5]: 87%; residual activity [6]: 94%; residual activity [7]: 100%; residual activity [8]: 100%; residual activity [9]: 93%; residual activity [10]: 99%; inhibition [11]: 3.88%; residual activity [12]: 100%; residual activity [13]: 100%; residual activity [14]: 100%; residual activity [15]: 100%; residual activity [16]: 84%; residual activity [17]: 100%; residual activity [18]: 86%; residual activity [19]: 91%; residual activity [20]: 100%; residual activity [21]: 100%; residual activity [22]: 99%; residual activity [23]: 85%; residual activity [24]: 100%; residual activity [25]: 100%; residual activity [26]: 100%; residual activity [27]: 100%; residual activity [28]: 100%; residual activity [29]: 100%; residual activity [30]: 100%; residual activity [31]: 89%; residual activity [32]: 100%; inhibition [33]: -3.78%; residual activity [34]: 95%; residual activity [35]: 40%; residual activity [36]: 100%; inhibition [37]: 7.51%; residual activity [38]: 100%; residual activity [39]: 92%; residual activity [40]: 100%; residual activity [41]: 80%; residual activity [42]: 97%; residual activity [43]: 100%; residual activity [44]: 66%; residual activity [45]: 100%

Q: What does the source list for `CCS(=O)(=O)c1cc2cc(C[C@@](O)(CC(C)(C)c3ccc(F)cc3C(N)=O)C(F)(F)F)[nH]c2cn1`?
A: residual activity [1]: 100%; residual activity [2]: 92%; residual activity [3]: 90%; residual activity [4]: 100%; residual activity [5]: 97%; residual activity [6]: 60%; residual activity [7]: 85%; residual activity [8]: 69%; residual activity [9]: 76%; residual activity [10]: 100%; inhibition [11]: 2.05%; residual activity [12]: 100%; residual activity [13]: 99%; residual activity [14]: 92%; residual activity [15]: 100%; residual activity [16]: 50%; residual activity [17]: 89%; residual activity [18]: 92%; residual activity [19]: 68%; residual activity [20]: 100%; residual activity [21]: 100%; residual activity [22]: 83%; residual activity [23]: 91%; residual activity [24]: 88%; residual activity [25]: 67%; residual activity [26]: 100%; residual activity [27]: 46%; residual activity [28]: 71%; residual activity [29]: 94%; residual activity [30]: 65%; residual activity [31]: 100%; residual activity [32]: 100%; inhibition [33]: -3.13%; residual activity [34]: 100%; residual activity [35]: 100%; residual activity [36]: 77%; inhibition [37]: 7.98%; residual activity [38]: 94%; residual activity [39]: 71%; residual activity [40]: 90%; residual activity [41]: 80%; residual activity [42]: 91%; residual activity [43]: 84%; residual activity [44]: 67%; residual activity [45]: 72%
